Here are results for 3 compounds from patent US6034067A, “Serine protease inhibitors” (Akzo Nobel, N.V., priority 1996, dated 2000).

The IC50 is the concentration needed to halve the response being measured. Higher therefore signals a need for much substance.

For the experiment, the target named is T1, Human thrombin (Homo sapiens, UniProt P00734).
T1 construct: purchased Centraal Laboratorium voor Bloedtransfusie, Amsterdam, The Netherlands
The experiment is described as follows: Anti-thrombin assay (hydrolysis of chromogenic substrate S-2238 by thrombin). In kind it is biochemical. Particulars: final concentration causing 50% inhibition of the maximum absorbance of the blank; S-2238 substrate, TNP buffer pH 7.4, 37° C., absorbance at 405 nm. The procedure:
Thrombin (Factor IIa) is a factor in the coagulation cascade.
At room temperature 0.075 ml and 0.025 ml test compound or reference compound solutions or vehicle are alternately pipetted into the wells of a microtiter plate and these solutions are diluted with 0.115 ml and 0.0165 ml TNP buffer, respectively. […] The plate is incubated (with shaking for 30 s) at 37° C.
All data are collected in an IBM personal computer using LOTUS-MEASURE.
On to `CN[C@H](CC1CCCCC1)C(=O)N1CCC[C@H]1C(=O)NC(CCC(=O)NC(=N)N)C(=O)c1nccs1` (stereo partly drawn) [Example 6, N-Me-D-Cha-Pro-Glu(guanidine)-(2-thiazolyl)], for which it took 320 nM to reach half-maximal inhibition (IC50). This lies in the sub-micromolar range. For `N=C(N)NC(=O)CCC(NC(=O)[C@@H]1CCCN1C(=O)[C@@H](CC1CCCCC1)NCC(=O)O)C(=O)c1nccs1` (stereo partly drawn) [Example 2, HOOC-CH2 -D-Cha-Pro-Glu(guanadine)-(2-thiazolyl)], the half-inhibitory concentration (IC50) was found to be 34 nM. On to `CCS(=O)(=O)N[C@H](CC1CCCCC1)C(=O)N1CCC[C@H]1C(=O)NC(CCC(=O)NC(=N)N)C(=O)c1nccs1` (stereo partly drawn) [Example 4, EtSO2 -D-Cha-Pro-Glu(guanidine)-(2-thiazolyl)], for which the IC50 was 2590 nM.
